Experimental data as given in US11472811B2, “Pyrazolotriazolopyrimidine derivatives as A2A receptor antagonist” (BEIGENE, LTD., priority 2018, dated 2022).

Molecular target: human A2A receptor (A2AR) (Homo sapiens (Human), UniProt P29274)
Test: Luciferase reporter assay (HEK293-A2AR-luc2p/CRE/Hygro cells)
Assay type: cell-based
Conditions: 3 nM CGS21680, 5 h incubation
How it was run: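 Antagonism was scored as inhibition of CRE-luciferase signal driven by 3 nM CGS21680 (=100%) during a 5 h treatment with compound at 0.1–10000 nM. The line was HEK293 stably carrying human A2AR and luc2P/CRE, preincubated 18 h in 1% FBS containing 1 U/mL ADA. IC50 came from the dose-response curve.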

human A2A receptor (A2AR), sequence (P29274 whole entry): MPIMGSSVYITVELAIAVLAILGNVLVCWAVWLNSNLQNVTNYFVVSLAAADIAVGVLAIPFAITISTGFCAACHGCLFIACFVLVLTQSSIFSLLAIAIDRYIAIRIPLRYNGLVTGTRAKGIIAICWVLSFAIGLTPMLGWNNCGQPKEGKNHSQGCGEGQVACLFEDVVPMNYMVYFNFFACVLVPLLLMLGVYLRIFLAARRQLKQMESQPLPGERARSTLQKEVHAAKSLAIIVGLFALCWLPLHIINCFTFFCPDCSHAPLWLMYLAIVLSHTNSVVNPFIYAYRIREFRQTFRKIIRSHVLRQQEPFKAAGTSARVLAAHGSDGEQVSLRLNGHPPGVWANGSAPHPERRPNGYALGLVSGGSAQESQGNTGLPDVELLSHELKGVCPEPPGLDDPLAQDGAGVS

| SMILES | IC50 [nM] |
| --- | --- |
| CC(C(=O)NC1CCCCC1)(c1ccccc1)n1ncc2c1nc(N)n1nc(-c3ccco3)nc21 (centres unmarked) [Example 43, 2-(5-amino-2-(furan-2-yl)-7H-pyrazolo[4,3-e][1,2,4]triazolo[1,5-c]pyrimidin-7-yl)-N-cyclohexyl-2-phenylpropanamide] | 4.1 |
| NC(=O)C(c1ccccc1)n1ncc2c1nc(N)n1nc(-c3ccco3)nc21 (centres unmarked) [Example 19, 2-(5-amino-2-(furan-2-yl)-7H-pyrazolo[4,3-e][1,2,4]triazolo[1,5-c]pyrimidin-7-yl)-2-phenylacetamide] | 4.5 |
| CC(C(=O)N[C@H]1CC[C@](C)(O)CC1)(c1ccccc1)n1ncc2c1nc(N)n1nc(-c3ccco3)nc21 (stereo partly drawn) [Example 69, 2-(5-amino-2-(furan-2-yl)-7H-pyrazolo[4,3-e][1,2,4]triazolo[1,5-c]pyrimidin-7-yl)-(cis)-N-(4-hydroxy-4-methylcyclohexyl)-2-phenylpropanamide] | 10.5 |
| C[C@@H](O)CNC(=O)C(C)(c1ccccc1)n1ncc2c1nc(N)n1nc(-c3ccco3)nc21 (stereo partly drawn) [Example 38, 2-(5-amino-2-(furan-2-yl)-7H-pyrazolo[4,3-e][1,2,4]triazolo[1,5-c]pyrimidin-7-yl)-N—((R)-2-hydroxypropyl)-2-phenylpropanamide] | 22.6 |
| CC(C(=O)NCc1cccnc1)(c1ccccc1)n1ncc2c1nc(N)n1nc(-c3ccco3)nc21 (centres unmarked) [Example 84, 2-(5-amino-2-(furan-2-yl)-7H-pyrazolo[4,3-e][1,2,4]triazolo[1,5-c]pyrimidin-7-yl)-2-phenyl-N-(pyridin-3-ylmethyl)propenamide] | 17 |
| CC(C(=O)N[C@H]1COC[C@H]1O)(c1ccccc1)n1ncc2c1nc(N)n1nc(-c3ccco3)nc21 (stereo partly drawn) [Example 107, 2-(5-amino-2-(furan-2-yl)-7H-pyrazolo[4,3-e][1,2,4]triazolo[1,5-c]pyrimidin-7-yl)-N-((3S,4S)-4-hydroxytetrahydrofuran-3-yl)-2-phenylpropanamide] | 76.3 |
| Nc1nc2c(cnn2C(C(=O)NCC2(O)COC2)c2ccccc2)c2nc(-c3ccco3)nn12 (centres unmarked) [Example 82, 2-(5-amino-2-(furan-2-yl)-7H-pyrazolo[4,3-e][1,2,4]triazolo[1,5-c]pyrimidin-7-yl)-N-((3-hydroxyoxetan-3-yl)methyl)-2-phenylacetamide] | 4.5 |
| COc1ccccc1CNC(=O)C(CC(C)C)n1ncc2c1nc(N)n1nc(-c3ccco3)nc21 (centres unmarked) [Example 27, 2-(5-amino-2-(furan-2-yl)-7H-pyrazolo[4,3-e][1,2,4]triazolo[1,5-c]pyrimidin-7-yl)-N-(2-methoxybenzyl)-4-methylpentanamide] | 16.1 |
| CC(C(=O)NCC1(O)COC1)(c1ccccc1)n1ncc2c1nc(N)n1nc(-c3nccs3)nc21 (centres unmarked) [Example 133, 2-(5-amino-2-(thiazol-2-yl)-7H-pyrazolo[4,3-e][1,2,4]triazolo[1,5-c]pyrimidin-7-yl)-N-((3-hydroxyoxetan-3-yl)methyl)-2-phenylpropanamide] | 15 |
| CN1CCN(CCNC(=O)C(C)(c2ccccc2)n2ncc3c2nc(N)n2nc(-c4ccco4)nc32)CC1 (centres unmarked) [Example 147, 2-(5-amino-2-(furan-2-yl)-7H-pyrazolo[4,3-e][1,2,4]triazolo[1,5-c]pyrimidin-7-yl)-N-(2-(4-methylpiperazin-1-yl)ethyl)-2-phenylpropanamide] | 24.7 |
| Nc1nc2c(cnn2C(C(=O)NC2CCc3ccccc32)c2ccccc2)c2nc(-c3ccco3)nn12 (centres unmarked) [Example 14, 2-(5-amino-2-(furan-2-yl)-7H-pyrazolo[4,3-e][1,2,4]triazolo[1,5-c]pyrimidin-7-yl)-N-(2,3-dihydro-1H-inden-1-yl)-2-phenylacetamide] | 6.1 |
| CC(Cc1ccccc1)(C(=O)NCC1(O)COC1)n1ncc2c1nc(N)n1nc(-c3ccco3)nc21 (centres unmarked) [Example 132, 2-(5-amino-2-(furan-2-yl)-7H-pyrazolo[4,3-e][1,2,4]triazolo[1,5-c]pyrimidin-7-yl)-N-((3-hydroxyoxetan-3-yl)methyl)-2-methyl-3-phenylpropanamide] | 15.7 |
| CC(C(=O)N[C@@H]1CC[C@@H](O)C1)(c1ccccc1)n1ncc2c1nc(N)n1nc(-c3ccco3)nc21 (stereo partly drawn) [Example 94, 2-(5-amino-2-(furan-2-yl)-7H-pyrazolo[4,3-e][1,2,4]triazolo[1,5-c]pyrimidin-7-yl)-N-((1R,3R)-3-hydroxycyclopentyl)-2-phenylpropanamide] | 11.2 |
| CC(C(=O)N[C@H]1CCC[C@H]1O)(c1ccccc1)n1ncc2c1nc(N)n1nc(-c3ccco3)nc21 (stereo partly drawn) [Example 47, 2-(5-amino-2-(furan-2-yl)-7H-pyrazolo[4,3-e][1,2,4]triazolo[1,5-c]pyrimidin-7-yl)-N-((1S,2R)-2-hydroxycyclopentyl)-2-phenylpropanamide] | 12.8 |
| CC(C(=O)N[C@H]1CCCC[C@H]1O)(c1ccccc1)n1ncc2c1nc(N)n1nc(-c3ccco3)nc21 (stereo partly drawn) [Example 56, 2-(5-amino-2-(furan-2-yl)-7H-pyrazolo[4,3-e][1,2,4]triazolo[1,5-c]pyrimidin-7-yl)-N-((1S,2R)-2-hydroxycyclohexyl)-2-phenylpropanamide] | 10.9 |
| CC(C(=O)N[C@H]1CC[C@H](O)CC1)(c1ccccc1)n1ncc2c1nc(N)n1nc(-c3ccco3)nc21 (relative stereo) [Example 52, 2-(5-amino-2-(furan-2-yl)-7H-pyrazolo[4,3-e][1,2,4]triazolo[1,5-c]pyrimidin-7-yl)-(trans)-N-(4-hydroxycyclohexyl)-2-phenylpropanamide] | 6.7 |
| C[C@@](C(=O)NCC1(O)COC1)(c1ccccc1)n1ncc2c1nc(N)n1nc(-c3ccco3)nc21 [Example 31A] | 28 |
| CC(C(=O)N[C@@H]1CC[C@H](O)C1)(c1ccccc1)n1ncc2c1nc(N)n1nc(-c3ccco3)nc21 (stereo partly drawn) [Example 135, 2-(5-amino-2-(furan-2-yl)-7H-pyrazolo[4,3-e][1,2,4]triazolo[1,5-c]pyrimidin-7-yl)-N-((1R,3S)-3-hydroxycyclopentyl)-2-phenylpropanamide] | 11.2 |

The next molecules have a lower IC50 than those just listed; values first:

| IC50 [nM] | SMILES |
| --- | --- |
| 0.9 | Nc1nc2c(cnn2C(C(=O)NCc2cccc(C3(O)CCC3)n2)c2ccccc2)c2nc(-c3ccco3)nn12 (centres unmarked) [Example 18, 2-(5-amino-2-(furan-2-yl)-7H-pyrazolo[4,3-e][1,2,4]triazolo[1,5-c]pyrimidin-7-yl)-N-((6-(1-hydroxycyclobutyl)pyridin-2-yl)methyl)-2-phenylacetamide] |
| 0.6 | Cc1cccnc1CNC(=O)C(C)(c1ccccc1)n1ncc2c1nc(N)n1nc(-c3ccco3)nc21 (centres unmarked) [Example 111, 2-(5-amino-2-(furan-2-yl)-7H-pyrazolo[4,3-e][1,2,4]triazolo[1,5-c]pyrimidin-7-yl)-N-((3-methylpyridin-2-yl)methyl)-2-phenylpropanamide] |
| 3 | Cc1cccc(CNC(=O)C(C)(c2ccccc2)n2ncc3c2nc(N)n2nc(-c4ccco4)nc32)n1 (centres unmarked) [Example 108, 2-(5-amino-2-(furan-2-yl)-7H-pyrazolo[4,3-e][1,2,4]triazolo[1,5-c]pyrimidin-7-yl)-N-((6-methylpyridin-2-yl)methyl)-2-phenylpropanamide] |
| 1.8 | CC(C(=O)N[C@@H]1CCCC[C@@H]1O)(c1ccccc1)n1ncc2c1nc(N)n1nc(-c3ccco3)nc21 (stereo partly drawn) [Example 58, 2-(5-amino-2-(furan-2-yl)-7H-pyrazolo[4,3-e][1,2,4]triazolo[1,5-c]pyrimidin-7-yl)-N-((1R,2S)-2-hydroxycyclohexyl)-2-phenylpropanamide] |
| 2.6 | Nc1nc2c(cnn2C(C(=O)NCc2ccc(F)cc2)c2ccccc2)c2nc(-c3ccco3)nn12 (centres unmarked) [Example 26, 2-(5-amino-2-(furan-2-yl)-7H-pyrazolo[4,3-e][1,2,4]triazolo[1,5-c]pyrimidin-7-yl)-N-(4-fluorobenzyl)-2-phenylacetamide] |
| 2 | Nc1nc2c(cnn2C(C(=O)NCc2ccccc2OC(F)(F)F)c2ccccc2)c2nc(-c3ccco3)nn12 (centres unmarked) [Example 8, 2-(5-amino-2-(furan-2-yl)-7H-pyrazolo[4,3-e][1,2,4]triazolo[1,5-c]pyrimidin-7-yl)-2-phenyl-N-(2-(trifluoromethoxy)benzyl)acetamide] |
| 2.9 | CC(C(=O)N[C@@H]1CCC[C@@H]1O)(c1ccccc1)n1ncc2c1nc(N)n1nc(-c3ccco3)nc21 (stereo partly drawn) [Example 48, 2-(5-amino-2-(furan-2-yl)-7H-pyrazolo[4,3-e][1,2,4]triazolo[1,5-c]pyrimidin-7-yl)-N-((1R,2S)-2-hydroxycyclopentyl)-2-phenylpropanamide] |
| 1.5 | Nc1nc2c(cnn2C(C(=O)NCc2ccccc2F)c2ccccc2)c2nc(-c3ccco3)nn12 (centres unmarked) [Example 7, 2-(5-amino-2-(furan-2-yl)-7H-pyrazolo[4,3-e][1,2,4]triazolo[1,5-c]pyrimidin-7-yl)-N-(2-fluorobenzyl)-2-phenylacetamide] |
| 3.8 | Nc1nc2c(cnn2C2(C(=O)NCC3(O)COC3)CCCc3ccccc32)c2nc(-c3ccco3)nn12 (centres unmarked) [Example 93, 1-(5-amino-2-(furan-2-yl)-7H-pyrazolo[4,3-e][1,2,4]triazolo[1,5-c]pyrimidin-7-yl)-N-((3-hydroxyoxetan-3-yl)methyl)-1,2,3,4-tetrahydronaphthalene-1-carboxamide] |
| 3.9 | CC(C(=O)NCc1ccc2c(c1)OCO2)(c1ccccc1)n1ncc2c1nc(N)n1nc(-c3ccco3)nc21 (centres unmarked) [Example 42, 2-(5-amino-2-(furan-2-yl)-7H-pyrazolo[4,3-e][1,2,4]triazolo[1,5-c]pyrimidin-7-yl)-N-(benzo[d][1,3]dioxol-5-ylmethyl)-2-phenylpropanamide] |
| 1.1 | C[C@](C(=O)NCc1ncccc1C(F)(F)F)(c1ccccc1)n1ncc2c1nc(N)n1nc(-c3ccco3)nc21 [Example 141B, (R)-2-(5-amino-2-(furan-2-yl)-7H-pyrazolo[4,3-e][1,2,4]triazolo[1,5-c]pyrimidin-7-yl)-2-phenyl-N-((3-(trifluoromethyl)pyridin-2-yl)methyl)propanamide] |
